Structures are written as SMILES.

The assay deals with Jurkat FADD (−/−) Cells. The experiment in a line: TNF-α induced necroptosis of Jurkat FADD-deficient cells (CellTiter-Glo cell survival). Conditions: Homo sapiens; TNF-α induced necroptosis, Jurkat FADD-deficient cells, 13 hours, CellTiter-Glo; read-out: IC50. Format: cell-based, human. Here is the method: 1. Cell Activity Testing System (TNF-α Induces the Necroptosis of Jurkat Cells, the Human Leukemia Cells Deficient in FADD).
(1) Cell culture: Jurkat FADD-deficient cells were cultured in an RPMI 1640 medium with 10% fetal bovine serum (FBS), 100 U/mL penicillin, and 100 […]. The cells were cultured in a cell culture incubator at 37° C. with 5% CO2. And all the cells were cryopreserved in a complete medium containing 5-10% DMSO. Medium change and passage were performed 3-4 times per week.
(4) Experimental scheme: The system of TNF-α inducing the necroptosis of Jurkat FADD-deficient cells was used to screen for compounds with RIPKl kinase inhibitory activity.
Jurkat FADD-deficient cells were evenly inoculated into a 384-well plate with each well added with a 40 μL complete culture medium, followed by the addition of 5 μL of the under-testing compound to each well. The initial concentration of the compounds was set at 25 μM (for some compounds with higher activity, the initial concentration was set at 0.5 μM), with a three-fold gradient dilution, totaling 12 gradient points. Three replicate wells were set for each compound. In addition, there was a blank control group and a control group with TNFα stimulation only. After the compound was added, the mixture needed to be centrifuged and incubated in a cell culture incubator at 37° C. containing 5% CO2 for 1 hour. After that, 5 μL of 5 ng/mL TNFα was added to stimulate the occurrence of necroptosis. After centrifugation and mixing, the mixture was placed in the cell culture incubator for 13 hours (until the cell death rate reaches 65% in the group with only TNF-α), with a total volume of 50 μL per well. Then, the steps below were followed to test the cell survival rate.
The CellTiter-Glo® Buffer was removed from the reagent kit, equilibrated to room temperature, and used to dissolve the CellTiter-Glo® Substrate. The CellTiter-Glo® Reagent obtained could be directly used for the experiment.
15 μL of CellTiter-Glo® Reagent which has been equilibrated to room temperature was added to each well, and incubated in the dark for 15 minutes. After that, a microplate reader (Enspire Multimode Plate Reader of PerkinElmer, USA) was used to measure the chemiluminescence.
Background: Cellular ATP, detected with luciferase, serves as a proxy for viable cell number.
A word on the IC50: it is the concentration needed to halve the response being measured. `CN1C(=O)[C@@H](NC(=O)c2nnc(Cc3ccccc3)[nH]2)Cn2cc(-c3ccn[nH]3)c3cccc1c32` [T-116, (S)-5-benzyl-N-(1-methyl-2-oxo-7-(1H-pyrazol-5-yl)-1,2,3,4-tetrahydro-[1,4]diazepine [3,2,1-hi]indol-3-yl)-4H-1,2,4-triazole-3-carboxamide]: the half-inhibitory concentration (IC50) lay within 10 to 100 nM.
Next, `CN1C(=O)C(NC(=O)c2nnc(Cc3ccccc3)[nH]2)Cc2cn(-c3nccc4ccccc34)c3cccc1c23` (racemic) [T-99, (±)-5-benzyl-N-(6-(isoquinolin-1-yl)-1-methyl-2-oxo-2,3,4,6-tetrahydro-1H-aza [4,3,2-cd]indol-3-yl)-4H-1,2,4-triazole-3-carboxamide]: under 10 nM.
As for `CC(O)c1cccnc1-n1cc2c3c(cccc31)N(C)C(=O)C(NC(=O)c1nnc(Cc3ccccc3)[nH]1)C2` (racemic) [T-58, (±)-5-benzyl-N-(6-(3-(1-hydroxyethyl)pyridin-2-yl)-1-methyl-2-oxo-2,3,4,6-tetrahydro-1H-azacyclo [4,3,2-cd]indol-3-yl)-4H-1,2,4-triazole-3-carboxamide], the figure is 10 to 100 nM; as for `CN1C(=O)C(NC(=O)c2nnc(Cc3ccccc3)[nH]2)Cc2cn(-c3ncccc3OC(F)(F)F)c3cccc1c23` (racemic) [T-105, (±)-5-benzyl-N-(1-methyl-2-oxo-6-(3-(trifluoromethoxy)pyridin-2-yl)-2,3,4,6-tetrahydro-1H-azacyclo [4,3,2-cd]indol-3-yl)-4H-1,2,4-triazole-3-carboxamide], under 10 nM.
For the molecule `CN1C(=O)C(NC(=O)c2nnc(Cc3ccccc3)[nH]2)Cc2cn(-c3ncccc3O)c3cccc1c23` (racemic) [T-47, (±)-5-benzyl-N-(6-(3-hydroxypyridin-2-yl)-1-methyl-2-oxo-2,3,4,6-tetrahydro-1H-azacyclo [4,3,2-cd]indol-3-yl)-4H-1,2,4-triazole-3-carboxamide], the IC50 lay in the range of 100 to 1000 nM.
For the molecule `CN1C(=O)[C@@H](NC(=O)c2nnc(Cc3ccccc3)[nH]2)Cn2cc(-c3cnn(CC(F)(F)F)c3)c3cccc1c32` [T-124, (S)-5-benzyl-N-(1-methyl-2-oxo-7-(1-(2,2,2-trifluoroethyl)-1H-pyrazol-4-yl)-1,2,3,4-tetrahydro-[1,4]diazepine [3,2,1-hi]indol-3-yl)-4H-1,2,4-triazole-3-carboxamide], the IC50 was 10 to 100 nM.
Next, `CN1C(=O)C(NC(=O)c2nnc(Cc3ccccc3)[nH]2)Cn2ccc3cccc1c32` (racemic) [T-1, (±)-5-benzyl-N-(1-methyl-2-oxy-1,2,3,4-tetrahydro-[1,4]diazepino [3,2,1-hi]indol-3-yl)-4H-1,2,4-triazole-3-carboxamide]: under 10 nM; `Cc1cccnc1-n1cc2c3c(cccc31)N(C)C(=O)C(NC(=O)c1nnc(Cc3ccccc3)[nH]1)C2` (racemic) [T-44, (±)-5-benzyl-N-(1-methyl-6-(3-methylpyridin-2-yl)-2-oxo-2,3,4,6-tetrahydro-1H-azacyclo [4,3,2-cd]indol-3-yl)-4H-1,2,4-triazole-3-carboxamide]: under 10 nM; `CN1C(=O)C(NC(=O)c2nnc(Cc3ccccc3)[nH]2)Cn2ccc3cc(Br)cc1c32` (racemic) [T-6, (±)-5-benzyl-N-(9-bromo-1-methyl-2-oxo-1,2,3,4-tetrahydro-[1,4]diazepino [3,2,1-hi]indol-3-yl)-4H-1,2,4-triazole-3-carboxamide]: 100 to 1000 nM.
Next, `CN1C(=O)C(NC(=O)c2nnc(Cc3ccccc3)[nH]2)Cc2cn(-c3ccncc3)c3cccc1c23` (racemic) [T-102, (±)-5-benzyl-N-(1-methyl-2-oxo-6-(pyridin-4-yl)-2,3,4,6-tetrahydro-1H-azacyclo [4,3,2-cd]indol-3-yl)-4H-1,2,4-triazole-3-carboxamide]: 10 to 100 nM.
For `CN1C(=O)C(NC(=O)c2nnc(Cc3ccccc3)[nH]2)Cc2cn(-c3ncccc3CC(F)(F)F)c3cccc1c23` (racemic) [T-97, (±)-5-benzyl-N-(1-methyl-2-oxo-6-(3-(2,2,2-trifluoroethyl)pyridin-2-yl)-2,3,4,6-tetrahydro-1H-azacyclo [4,3,2-cd]indol-3-yl)-4H-1,2,4-triazole-3-carboxamide], the IC50 is under 10 nM.
Next, `CN1C(=O)[C@@H](NC(=O)c2ncc(Cc3ccccc3)o2)Cn2cc(-c3cn(C)nc3C(F)(F)F)c3cccc1c32` [T-127, (S)-5-benzyl-N-(1-methyl-7-(1-methyl-3-(trifluoromethyl)-1H-pyrazol-4-yl)-2-oxo-1,2,3,4-tetrahydro-[1,4]diazepine [3,2,1-hi]indol-3-yl)oxazole-2-carboxamide]: under 10 nM; `CN1C(=O)C(NC(=O)c2nnc(Cc3ccccc3)[nH]2)Cc2c[nH]c3cccc1c23` (racemic) [T-19, (±)-5-benzyl-N-(1-methyl-2-oxo-2,3,4,6-tetrahydro-1H-azacyclo [4,3,2-cd]indol-3-yl)-4H-1,2,4-triazole-3-carboxamide]: under 10 nM.
As for `COc1ccccc1-c1cn2c3c(cccc13)N(C)C(=O)C(NC(=O)c1nnc(Cc3ccccc3)[nH]1)C2` (racemic) [T-87, (±)-5-benzyl-N-(7-(2-methoxyphenyl)-1-methyl-2-oxo-1,2,3,4-tetrahydro-[1,4]diazepine [3,2,1-hi]indol-3-yl)-4H-1,2,4-triazole-3-carboxamide], the figure is 10 to 100 nM; as for `CN1C(=O)C(NC(=O)c2nnc(Cc3ccccc3)[nH]2)Cn2cc(-c3ncccc3C(F)(F)F)c3cccc1c32` (centres unmarked) [T-82, 5-benzyl-N-(1-methyl-2-oxo-7-(3-(trifluoromethyl)pyridin-2-yl)-1,2,3,4-tetrahydro-[1,4]diazepino[3,2,1-hi]indol-3-yl)-4H-1,2,4-triazole-3-carboxamide], under 10 nM.
With `CN1C(=O)C(NC(=O)c2nnc(Cc3ccccc3)[nH]2)Cc2cn(CC(=O)O)c3cccc1c23` (racemic) [T-30, (±)-2-(3-(5-benzyl-4H-1,2,4-triazole-3-carboxamide)-1-methyl-2-oxo-1,2,3,4-tetrahydro-6H-azacyclo [4,3,2-cd]indol-6-yl)acetic Acid], the IC50 was in the range of 100 to 1000 nM.
As for `CN1C(=O)[C@@H](NC(=O)c2nnc(Cc3ccccc3)[nH]2)Cn2cc(-c3cncs3)c3cccc1c32` [T-123, (S)-5-benzyl-N-(1-methyl-2-oxo-7-(thiazol-5-yl)-1,2,3,4-tetrahydro-[1,4]diazepine [3,2,1-hi]indol-3-yl)-4H-1,2,4-triazole-3-carboxamide], the figure is 10 to 100 nM; as for `CN1C(=O)C(NC(=O)c2nnc(Cc3ccccc3)[nH]2)Cc2cn(-c3ncccc3C(C)(C)O)c3cccc1c23` (racemic) [T-55, (±)-5-benzyl-N-(6-(3-(2-hydroxypropan-2-yl)pyridin-2-yl)-1-methyl-2-oxy-2,3,4,6-tetrahydro-1H-azacyclo [4,3,2-cd]indol-3-yl)-4H-1,2,4-triazole-3-carboxamide], 10 to 100 nM.
With `CC(C)OC(=O)c1cccnc1-n1cc2c3c(cccc31)N(C)C(=O)C(NC(=O)c1nnc(Cc3ccccc3)[nH]1)C2` (racemic) [T-104, (±)-2-(3-(5-benzyl-4H-1,2,4-triazole-3-carboxamide)-1-methyl-2-oxo-1,2,3,4-tetrahydro-6H-azacyclo [4,3,2-cd]indol-6-yl)isopropyl Nicotinate], the IC50 was 10 to 100 nM.
Next, `CN1C(=O)C(N2CCc3c(nn(Cc4ccccc4)c3Cl)C2=O)Cc2cn(-c3ncccc3C(F)(F)F)c3cccc1c23` (racemic) [T-60, (±)-3-(2-benzyl-3-chloro-7-oxo-2,4,5,7-tetrahydro-6H-pyrazole [3,4-c]pyridin-6-yl)-1-methyl-6(3-(trifluoromethyl)pyridin-2-yl)-1,3,4,6-tetrahydro-2H-azepine [4,3,2-cd] indole-2-one]: under 10 nM; `CN1C(=O)C(NC(=O)c2nnc(Cc3ccccc3)[nH]2)Cc2cn(-c3ncccc3CO)c3cccc1c23` (racemic) [T-49, (±)-5-benzyl-N-(6-(3-(hydroxymethyl)pyridin-2-yl)-1-methyl-2-oxo-2,3,4,6-tetrahydro-1H-azacyclo [4,3,2-cd]indol-3-yl)-4H-1,2,4-triazole-3-carboxamide]: under 10 nM.
Turning to `CN1C(=O)C(NC(=O)c2nnc(Cc3ccccc3)[nH]2)Cn2cc(C#N)c3cccc1c32` (racemic) [T-76, (±)-5-benzyl-N-(7-cyano-1-methyl-2-oxo-1,2,3,4-tetrahydro-[1,4]diazepino [3,2,1-hi]indol-3-yl)-4H-1,2,4-triazole-3-carboxamide], the IC50 was 10 to 100 nM.
Next, `CN1C(=O)C(NC(=O)c2nnc(Cc3ccccc3)[nH]2)Cn2cc(Br)c3cccc1c32` (racemic) [T-11, (±)-5-benzyl-N-(7-bromo-1-methyl-2-oxo-1,2,3,4-tetrahydro-[1,4]diazepino [3,2,1-hi]indol-3-yl)-4H-1,2,4-triazole-3-carboxamide]: 10 to 100 nM.

(Values after US20250049812A1, “Compounds that Inhibit Necroptosis and Their Preparation Methods” (SHANGHAI INSTITUTE OF ORGANIC CHEMISTRY, CHINESE ACADEMY OF …, priority 2021, published 2025).)
